Results from US20230277613A1, “Polysaccharide-Rich Bombax Costatum Flower Extract” (priority 2020, published 2023).
Marks after values point to notes of the source that are not given here.

Key:
[1] = tested on: hBD2; assay: Intracellular hBD2 production in keratinocytes (ELISA); type: cell-based, human; conditions: IL1β 100 ng/ml
Experimental: (§1) Normal human epidermal keratinocytes were treated for 24 or 48 hours with BCP extract or IL1β at 100 ng/ml (positive reference). Moreover, the quantities of TLR2 and intracellular hBD2 were measured by ELISA.

[2] = tested on: hBD2; assay: hBD2 gene expression in keratinocytes (real-time quantitative RT-PCR); type: cell-based, human; conditions: IL1β 100 ng/ml
Experimental: (§2) Normal human epidermal keratinocytes were treated for 24 or 48 hours with BCP extract or IL1β at 100 ng/ml (positive reference). At the end of the treatment, the gene expression of hBD2, hBD3 and TLR2 was analyzed by real-time quantitative RT-PCR.

[3] = tested on: TLR2; assay: TLR2 production in keratinocytes (ELISA); type: cell-based, human; conditions: IL1β 100 ng/ml
Experimental: as §1

[4] = tested on: hBD3; assay: hBD3 gene expression in keratinocytes (real-time quantitative RT-PCR); type: cell-based, human; conditions: IL1β 100 ng/ml
Experimental: as §2

[5] = tested on: TLR2; assay: TLR2 gene expression in keratinocytes (real-time quantitative RT-PCR); type: cell-based, human; conditions: IL1β 100 ng/ml
Experimental: as §2

[6] = tested on: IL8 (Interleukin 8); assay: IL8 produced by NHKs under PMA stress (ELISA); type: cell-based, human
Experimental: (§3) Normal Human Keratinocytes (NHK) were treated for 24 hours at 37° C. with the Bombax costatum Polysaccharide extract according to Example 1 (called BCP extract) at 0.01% and/or 0.05% of dry matter (DM) or by Dexamethasone or Indomethacin at 10^-7M (anti-inflammatory reference molecules). The cells were then treated by adding PMA at 10 μg/ml (Phorbol Myristate Acetate, inflammation-inducing agent) for 16 hours at 37° C. At the end of the treatment, the quantities of IL1α (interleukin 1α), PGE2 (Prostaglandin-E2), IL1β (Interleukin 1β), TNFα (Tumor Necrosis Factor α), IL6 (Interleukin 6) and IL8 (Interleukin 8) secreted were measured by the ELISA technique in the culture supernatants.
(§4) The significance of the results was assessed by a one-way analysis of variance followed by a Tuckey test.

[7] = tested on: IL6 (Interleukin 6); assay: IL6 produced by NHKs under PMA stress (ELISA); type: cell-based, human
Experimental: as §3, §4

[8] = tested on: IL1β (Interleukin 1β); assay: IL1-beta produced by NHKs under PMA stress (ELISA); type: cell-based, human
Experimental: as §3, §4

[9] = tested on: TNFα (Tumor Necrosis Factor α); assay: TNF-alpha produced by NHKs under PMA stress (ELISA); type: cell-based, human
Experimental: as §3, §4

[10] = tested on: IL1α (interleukin 1α); assay: IL1-alpha produced by NHKs under PMA stress (ELISA); type: cell-based, human
Experimental: as §3, §4

[11] = tested on: PGE2 (Prostaglandin-E2); assay: PGE2 produced by NHKs under PMA stress (ELISA); type: cell-based, human
Experimental: as §3, §4

[12] = tested on: Corynebacterium striatum (ATCC 6940); assay: In vitro sniff test and viability in reconstituted sweat, C. striatum; type: cell-based; set-up: key to Odor (Sniff) 6 h / Odor (Sniff) 24 h: 1. Absent (comparable to 0.1% chlorhexidine positive control); 2. Moderate; 3. Intense (bacteria-specific olfactory signature); conditions: 0.1% (BCP or chlorhexidine digluconate)
Experimental: (§5) Staphylococcus epidermidis (ATCC 12228) and Corynebacterium striatum (ATCC 6940) strains were used. Each of these strains has a typical olfactory signature, the result of the metabolism of sweat components: • S. epidermidis: Valeric and propionic acid; • C. striatum: Sulphanyl alcohols. Each bacterial strain was inoculated into a reconstituted sweat solution in the presence of the BCP extract at 0.1%; 0.6% or 2% or 0.1% chlorhexidine digluconate (positive control). After 6 h and 24 h of incubation: The bacterial viability was evaluated by bacterial count expressed in CFU/ml. A sniff test was carried out to determine the olfactory signature qualitatively and semi-quantitatively (intensity of the smell) immediately after opening the vial, the smell was evaluated and scored by a trained operator: • 1. […] Moderate • 3. Intense (bacteria-specific olfactory signature)

[13] = tested on: Staphylococcus epidermidis (ATCC 12228); assay: In vitro sniff test and viability in reconstituted sweat, S. epidermidis; type: cell-based; set-up: key to Odor (Sniff) 6 h / Odor (Sniff) 24 h: 1. Absent (comparable to 0.1% chlorhexidine positive control); 2. Moderate; 3. Intense (bacteria-specific olfactory signature); conditions: 0.1% (BCP or chlorhexidine digluconate)
Experimental: as §5

[14] = Dexamethasone 0.1 μM 24 hours, then PMA 10 μg/ml 16 hours
[15] = Dexamethasone 0.1 μM, vs PMA 10 μg/ml

In the case of “IL1β: IL1β at 100 ng/ml (positive reference)”, the hBD2 intracellular protein ([1]; 24 or 48 hours, control 141.5 ± 15.2) is reported as 2162.7 ± 51.1 pg/mL, the “hBD2 protein Evolution” value ([1]; vs Control) is reported as “+1428% ***” and the “hBD2 RQ” value ([2]; 24 or 48 hours, control 1.12) is reported as 3480.89. For the same compound, the “hBD2 Evolution” value ([2]; vs Control) was “×3000 ***”, the TLR2 protein ([3]; 24 or 48 hours, control 735.9 ± 39.2) was 913.7 ± 30.5 pg/mL and the “TLR2 protein Evolution” value ([3]; vs Control) was “+24% **”. For the same compound, the “hBD3 RQ” value ([4]; 24 or 48 hours, control 1.09) was 9.04, the “hBD3 Evolution” value ([4]; vs Control) was “+730% ***” and the “TLR2 RQ” value ([5]; 24 or 48 hours, control 1.08) was 3.26. For the same compound, the “TLR2 Evolution” value ([5]; vs Control) was “+201% ***”.

With `C[C@@H]1C[C@H]2[C@@H]3CCC4=CC(=O)C=C[C@]4(C)[C@@]3(F)[C@@H](O)C[C@]2(C)[C@@]1(O)C(=O)CO` [Dexamethasone] the “IL8 Average” value [6, 14] was 4076.675 pg/mL, the “IL8 Evolution” value [6, 15] was −59 and the “IL6 Average” value [7, 14] was 2.090 pg/mL. For the same compound, the “IL6 Evolution” value [7, 15] was −70%, the “IL1β Average” value [8, 14] was 34.410 pg/mL and the “IL1β Evolution” value [8, 15] was −32%. The “TNFα Average” value [9, 14] was 16.216 pg/mL, the “TNFα Evolution” value [9, 15] was −52% and the “IL1α Average” value [10, 14] was 230.583 pg/mL. The “IL1α Evolution” value [10, 15] was −38%, the “PGE2 Average” value [11, 14] was 39.000 pg/mL and the “PGE2 Evolution” value [11, 15] was −94%.

For `[H]/N=C(\N/C(=N/[H])NCCCCCCNC(=N)NC(=N)Nc1ccc(Cl)cc1)Nc1ccc(Cl)cc1` [Chlorhexidine, chlorhexidine digluconate], the “Viability 6 h” value ([12]; control 8.51 ± 0.08) was 0.00 ± 0.00 Log10 CFU/ml, the “Viability 24 h” value ([12]; control 8.64 ± 0.19) was 0.00 ± 0.00 Log10 CFU/ml and the “Odor (Sniff) 6 h” value ([12]; control Moderate) was “Absent”. For the same compound, the “Odor (Sniff) 24 h” value ([12]; control Moderate) was “Intense”, the “Viability 24 h” value ([13]; control 8.69 ± 0.09) was 0.00 ± 0.00 Log10 CFU/ml and the “Viability 6 h” value ([13]; control 8.91 ± 0.21) was 0.00 ± 0.00 Log10 CFU/ml. The “Odor (Sniff) 6 h” value ([13]; control Intense) was “Absent” and the “Odor (Sniff) 24 h” value ([13]; control Intense) was “Absent”.
